Assays:
GSK-3β [1] = target: T1, GSK-3β (Homo sapiens, UniProt P49841); assay: in vitro kinase assay with recombinant GSK-3β and immunoprecipitated N protein as substrate, single concentration ([…]); format: biochemical
T1 construct: gene GSK3B; human recombinant GSK-3β

GSK-3β [2] = target: T1, GSK-3β; assay: in vitro kinase assay with recombinant GSK-3β; tau or immunoprecipitated N protein as substrate, gel mobility shift; format: biochemical

T1 sequence (P49841 whole entry): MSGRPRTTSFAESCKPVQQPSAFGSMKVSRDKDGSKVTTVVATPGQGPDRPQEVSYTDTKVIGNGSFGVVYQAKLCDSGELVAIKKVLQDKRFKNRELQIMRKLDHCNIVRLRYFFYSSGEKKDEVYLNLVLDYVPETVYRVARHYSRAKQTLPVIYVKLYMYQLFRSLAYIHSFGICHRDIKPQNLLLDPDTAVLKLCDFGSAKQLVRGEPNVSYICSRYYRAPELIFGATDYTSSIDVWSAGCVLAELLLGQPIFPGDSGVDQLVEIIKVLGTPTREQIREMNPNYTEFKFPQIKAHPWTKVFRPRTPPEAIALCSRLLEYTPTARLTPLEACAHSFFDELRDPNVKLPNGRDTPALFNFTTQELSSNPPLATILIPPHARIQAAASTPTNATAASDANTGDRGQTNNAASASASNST

Structure (SMILES)	in vitro kinase assay with recombinant GSK-3β and immunoprecipitated N protein a (GSK-3β [1])	in vitro kinase assay with recombinant GSK-3β; tau or immunoprecipitated N prote (GSK-3β [2])
Cc1c[nH]c(-c2cnc(NCCNc3ccc(C#N)cn3)nc2-c2ccc(Cl)cc2Cl)n1 [CHIR99021]	2 µM	–
Cn1cc(C2=C(c3cn(C4CCN(Cc5ccccn5)CC4)c4ccccc34)C(=O)NC2=O)c2ccccc21 [Enzastaurin]	–	0.5 µM
